Data as given in patent US20090016990A1, “Antimicrobial Compositions” (priority 2007, published 2009).

Key:
[1] = test system: Pseudomonas aeruginosa ATCC 27853; experiment: MBEC assay, biofilm inhibition (prevention of biofilm formation), MBEC bioFILM PA panel; format: cell-based; set-up: MBEC-Biofilm Inhibition, Without compound 9 / MBEC-Biofilm Inhibition, Without compound 6 / MBEC-Biofilm Inhibition, Without compound 2 / MBEC-Biofilm Inhibition, Without compound 7 / MBEC-Biofilm Inhibition, With 0.01% compound 7 in 5% EtOH/PBS / MBEC-Biofilm Inhibition, without salt of compound 2 / MBEC-Biofilm Inhibition, with 0.1% salt of compound 2 / MBEC-Biofilm Inhibition, without salt of compound 6: unit not given here; conditions: for MBEC-Biofilm Inhibition, without salt of compound 2 / MBEC-Biofilm Inhibition, with 0.1% salt of compound 2: Table 9; for MBEC-Biofilm Inhibition, without salt of compound 2 / MBEC-Biofilm Inhibition, without salt of compound 6: antibiotic or antibiotic combination alone; for MBEC-Biofilm Inhibition, without salt of compound 2 / MBEC-Biofilm Inhibition, with 0.1% salt of compound 2 / MBEC-Biofilm Inhibition, without salt of compound 6 / MBEC-Biofilm Inhibition, with 0.1% salt of compound 6: value per component; for MBEC-Biofilm Inhibition, without salt of compound 2: separated by /; for MBEC-Biofilm Inhibition, with 0.1% salt of compound 2: antibiotic or combination plus 0.1% salt of compound 2; for MBEC-Biofilm Inhibition, without salt of compound 6 / MBEC-Biofilm Inhibition, with 0.1% salt of compound 6: Table 10; for MBEC-Biofilm Inhibition, with 0.1% salt of compound 6: antibiotic or combination plus 0.1% salt of compound 6; for MBEC-Biofilm Inhibition, Without compound 1 / MBEC-Biofilm Inhibition, Without compound 2 / MBEC-Biofilm Inhibition, Without compound 3 / MBEC-Biofilm Inhibition, Without compound 6 / MBEC-Biofilm Inhibition, Without compound 7 / MBEC-Biofilm Inhibition, Without compound 9: antibiotic alone
[2] = test system: Pseudomonas aeruginosa ATCC 27853; experiment: MBEC assay, biofilm elimination, MBEC bioFILM PA panel; format: cell-based; set-up: MBEC-Biofilm Elimination, Without compound 2 / MBEC-Biofilm Elimination, With 0.01% compound 2 in 5% EtOH/PBS / MBEC-Biofilm Elimination, Without compound 7 / MBEC-Biofilm Elimination, With 0.01% compound 7 in 5% EtOH/PBS / MBEC-Biofilm Elimination, Without compound 1 / MBEC-Biofilm Elimination, With 0.01% compound 1 in 5% EtOH/PBS / MBEC-Biofilm Elimination, without salt of compound 2 / MBEC-Biofilm Elimination, with 0.1% salt of compound 2: unit not given here; conditions: for MBEC-Biofilm Elimination, without salt of compound 2 / MBEC-Biofilm Elimination, with 0.1% salt of compound 2: Table 9; for MBEC-Biofilm Elimination, without salt of compound 2 / MBEC-Biofilm Elimination, without salt of compound 6: antibiotic or antibiotic combination alone; for MBEC-Biofilm Elimination, without salt of compound 2 / MBEC-Biofilm Elimination, with 0.1% salt of compound 2 / MBEC-Biofilm Elimination, without salt of compound 6 / MBEC-Biofilm Elimination, with 0.1% salt of compound 6: value per component; for MBEC-Biofilm Elimination, with 0.1% salt of compound 2: antibiotic or combination plus 0.1% salt of compound 2; for MBEC-Biofilm Elimination, without salt of compound 6 / MBEC-Biofilm Elimination, with 0.1% salt of compound 6: Table 10; for MBEC-Biofilm Elimination, with 0.1% salt of compound 6: antibiotic or combination plus 0.1% salt of compound 6; for MBEC-Biofilm Elimination, Without compound 1 / MBEC-Biofilm Elimination, Without compound 2 / MBEC-Biofilm Elimination, Without compound 3 / MBEC-Biofilm Elimination, Without compound 6 / MBEC-Biofilm Elimination, Without compound 7 / MBEC-Biofilm Elimination, Without compound 9: antibiotic alone
[3] = with 0.01% compound 2 in 5% EtOH/PBS

Compound: NCC[C@H](O)C(=O)N[C@@H]1C[C@H](N)[C@@H](O[C@H]2O[C@H](CN)[C@@H](O)[C@H](O)[C@H]2O)[C@H](O)[C@H]1O[C@H]1O[C@H](CO)[C@@H](O)[C@H](N)[C@H]1O [AK, amikacin]
- MBEC-Biofilm Inhibition, without salt of compound 2 [1]: >8
- MBEC-Biofilm Inhibition, with 0.1% salt of compound 2 [1]: >8
- MBEC-Biofilm Inhibition, without salt of compound 6 [1]: >8
- MBEC-Biofilm Inhibition, with 0.1% salt of compound 6 [1]: >8
- MBEC-Biofilm Inhibition, Without compound 1 [1]: >8
- MBEC-Biofilm Inhibition, Without compound 2 [1]: >8
- MBEC-Biofilm Inhibition, Without compound 3 [1]: >8
- MBEC-Biofilm Inhibition, Without compound 6 [1]: >8
- MBEC-Biofilm Inhibition, Without compound 7 [1]: >8
- MBEC-Biofilm Inhibition, Without compound 9 [1]: >8
- MBEC ([1]; antibiotic or combination alone, concentrations in order of the combination): >8 µg/mL
- MBEC, μg/mL +Compound 1 ([1]; antibiotic plus Compound 1): >8 µg/mL
- MBEC, μg/mL +Compound 2 ([1]; antibiotic plus Compound 2): >8 µg/mL
- MBEC, μg/mL +Compound 7 ([1]; antibiotic plus Compound 7): 2 to 8 µg/mL
- (% reduction) +Compound 7 ([1]; reduction of antibiotic or combination required to prevent biofilm formation): > 50%
- MBEC-Biofilm Inhibition, With 0.01% compound 1 in 5% EtOH/PBS [1]: >8
- MBEC-Biofilm Inhibition, With 0.01% compound 2 in 5% EtOH/PBS [1, 3]: 2-8
- value in parentheses after MBEC-Biofilm Inhibition with 0.01% compound 2 (% reduction as in Table 2) [1, 3]: ≥ 50
- MBEC-Biofilm Inhibition, With 0.01% compound 7 in 5% EtOH/PBS [1]: >8
- MBEC-Biofilm Inhibition, With 0.05% compound 3 in 5% EtOH/PBS [1]: >8
- MBEC-Biofilm Inhibition, With 0.05% compound 6 in 5% EtOH/PBS [1]: >8
- MBEC-Biofilm Inhibition, With 0.1% w/v compound 9 in PBS [1]: >8
- MBEC-Biofilm Elimination, without salt of compound 2 [2]: >8
- MBEC-Biofilm Elimination, with 0.1% salt of compound 2 [2]: 8
- MBEC-Biofilm Elimination, without salt of compound 6 [2]: >8
- MBEC-Biofilm Elimination, with 0.1% salt of compound 6 [2]: 8
- MBEC-Biofilm Elimination, Without compound 1 [2]: >8
- MBEC-Biofilm Elimination, Without compound 2 [2]: >8
- MBEC-Biofilm Elimination, Without compound 3 [2]: >8
- MBEC-Biofilm Elimination, Without compound 6 [2]: >8
- MBEC-Biofilm Elimination, Without compound 7 [2]: >8
- MBEC-Biofilm Elimination, Without compound 9 [2]: >8
- MBEC-Biofilm Elimination, With 0.01% compound 1 in 5% EtOH/PBS [2]: >8
- MBEC-Biofilm Elimination, With 0.01% compound 2 in 5% EtOH/PBS [2]: 8
- MBEC-Biofilm Elimination, With 0.01% compound 7 in 5% EtOH/PBS [2]: 8
- MBEC-Biofilm Elimination, With 0.05% compound 3 in 5% EtOH/PBS [2]: >8
- MBEC-Biofilm Elimination, With 0.05% compound 6 in 5% EtOH/PBS [2]: >8
- MBEC-Biofilm Elimination, With 0.1% w/v compound 9 in PBS [2]: >8

Compound: colistin [CT]
- MBEC-Biofilm Inhibition, without salt of compound 2 [1]: >1
- MBEC-Biofilm Inhibition, with 0.1% salt of compound 2 [1]: >1
- MBEC-Biofilm Inhibition, without salt of compound 6 [1]: >1
- MBEC-Biofilm Inhibition, with 0.1% salt of compound 6 [1]: >1
- MBEC-Biofilm Inhibition, Without compound 1 [1]: >1
- MBEC-Biofilm Inhibition, Without compound 2 [1]: >1
- MBEC-Biofilm Inhibition, Without compound 3 [1]: >1
- MBEC-Biofilm Inhibition, Without compound 6 [1]: >1
- MBEC-Biofilm Inhibition, Without compound 7 [1]: >1
- MBEC-Biofilm Inhibition, Without compound 9 [1]: >1
- MBEC-Biofilm Inhibition, With 0.01% compound 1 in 5% EtOH/PBS [1]: >1
- MBEC-Biofilm Inhibition, With 0.01% compound 2 in 5% EtOH/PBS [1, 3]: >1
- MBEC-Biofilm Inhibition, With 0.01% compound 7 in 5% EtOH/PBS [1]: >1
- MBEC-Biofilm Inhibition, With 0.05% compound 3 in 5% EtOH/PBS [1]: >1
- MBEC-Biofilm Inhibition, With 0.05% compound 6 in 5% EtOH/PBS [1]: >1
- MBEC-Biofilm Inhibition, With 0.1% w/v compound 9 in PBS [1]: >1
- MBEC-Biofilm Elimination, without salt of compound 2 [2]: >1
- MBEC-Biofilm Elimination, with 0.1% salt of compound 2 [2]: >1
- MBEC-Biofilm Elimination, without salt of compound 6 [2]: >1
- MBEC-Biofilm Elimination, with 0.1% salt of compound 6 [2]: >1
- MBEC-Biofilm Elimination, Without compound 1 [2]: >1
- MBEC-Biofilm Elimination, Without compound 2 [2]: >1
- MBEC-Biofilm Elimination, Without compound 3 [2]: >1
- MBEC-Biofilm Elimination, Without compound 6 [2]: >1
- MBEC-Biofilm Elimination, Without compound 7 [2]: >1
- MBEC-Biofilm Elimination, Without compound 9 [2]: >1
- MBEC-Biofilm Elimination, With 0.01% compound 1 in 5% EtOH/PBS [2]: 1
- MBEC-Biofilm Elimination, With 0.01% compound 2 in 5% EtOH/PBS [2]: 0.5
- MBEC-Biofilm Elimination, With 0.01% compound 7 in 5% EtOH/PBS [2]: 1
- MBEC-Biofilm Elimination, With 0.05% compound 3 in 5% EtOH/PBS [2]: >1
- MBEC-Biofilm Elimination, With 0.05% compound 6 in 5% EtOH/PBS [2]: >1
- MBEC-Biofilm Elimination, With 0.1% w/v compound 9 in PBS [2]: >1
